Experimental data taken from patent US20080280851A1 (Clavis Pharma AS, priority 2005, published 2008).
Read-outs that look alike come from different tables or passages of the source. Marks after values point to notes of the source that are not given here.

What was measured:
[1] = tested on: Colon 6044 (human colon carcinoma); test: Antitumour activity in Co6044 after oral administration, different dosing schedules (Table 4); format: in vivo, NCR: nu/nu female mice; details: for BWC / Toxic deaths (d) / Optimum T/C (on day): Oral; for Toxic deaths (d): 7 mice
From the text: Antitumour Activity of Elaidic Acid (5′)-Gemcitabine Ester in Co6044 after Oral Administration

[2] = tested on: Co6044 (human colon carcinoma); test: Antitumour activity in human colon cancer xenograft Co6044, IP treatment; details: for antitumor effect: IP every third day for five times, ester 40 mg/kg, gemcitabine 120 mg/kg; for Toxic deaths (d): 8 mice
From the text: (§1) Treatment started when the tumours reached a mean volume of 100 mm^3.

[3] = tested on: Colon 6044 (human colon carcinoma); test: Antitumour activity in Co6044 after oral administration (Table 3); details: for BWC D13 / Toxic deaths (d) / Optimum T/C (on day): Oral, Q3 × 5
[4] = tested on: Colon 5776 (human colon carcinoma); test: Antitumour activity in human colon xenograft Co5776, IP treatment; details: for Toxic deaths (d): D8, 11, 14, 17, 20, 8 mice; for antitumour activity in terms of reductions in tumour growth: gemcitabine 120 mg/kg, elaidic acid (5′)-gemcitabine ester 40 mg/kg, FIG. 1
From the text: (§2) Human colon cancer Co5776 was inserted to Ncr:nu/nu female mice subcutaneously, and treatment started when tumours reached a mean volume of 100 mm^3.

[5] = Maximum tolerated dose, every third day repeated five times; format: in vivo, mice; details: administered every third day
From the text: This is shown below by the experiments presented in table 1 and table 2 using different mice strains and also different human colon xenografts.

[6] = tested on: Co6044 (human colon carcinoma); details: mouse, in vivo, ip, 120 mg/kg
From the text: as §1

[7] = tested on: Colon 6044 (human colon carcinoma); details: mouse, in vivo, po
[8] = tested on: Colon 5776 (human colon carcinoma); details: mouse, in vivo, ip, 120 mg/kg
From the text: as §2

[9] = IP, 40 mg/kg, D8, 11, 14, 17, 20
[10] = IP, 120 mg/kg, D8, 11, 14, 17, 20

CCCCCCCC/C=C/CCCCCCCC(=O)OC[C@H]1O[C@@H](n2ccc(N)nc2=O)C(F)(F)[C@@H]1O [Elaidic acid (5′)-gemcitabine ester, elaidic acid (5′)-gemcitabine ester]
BWC ([1]; 5 mg/kg, D7-11): −3% | Toxic deaths (d) ([1]; 5 mg/kg, D7-11): 0 | Optimum T/C (on day) ([1]; 5 mg/kg, D7-11, on day 28): 10 (28)* % | BWC ([1]; 10 mg/kg, D7, 10, 13, 16, 19): −1% | Toxic deaths (d) ([1]; 10 mg/kg, D7, 10, 13, 16, 19): 0 | Optimum T/C (on day) ([1]; 10 mg/kg, D7, 10, 13, 16, 19, on day 24): 35 (24)* % | BWC ([1]; 10 mg/kg, D7-11): −5% | Toxic deaths (d) ([1]; 10 mg/kg, D7-11): 0 | Optimum T/C (on day) ([1]; 10 mg/kg, D7-11, on day 17): 8 (17)* % | BWC ([1]; 15 mg/kg, D7, 10, 13, 16, 19): −1% | Toxic deaths (d) ([1]; 15 mg/kg, D7, 10, 13, 16, 19): 0 | Optimum T/C (on day) ([1]; 15 mg/kg, D7, 10, 13, 16, 19, on day 24): 27 (24)* % | BWC ([1]; 20 mg/kg, D7, 10, 13, 16, 19): −3% | Toxic deaths (d) ([1]; 20 mg/kg, D7, 10, 13, 16, 19, death on day 17): 1 (17) | Optimum T/C (on day) ([1]; 20 mg/kg, D7, 10, 13, 16, 19, on day 24): 16 (24)* % | BWC ([1]; 50 mg/kg, D7, 14): 0% | Toxic deaths (d) ([1]; 50 mg/kg, D7, 14): 0 | Optimum T/C (on day) ([1]; 50 mg/kg, D7, 14, on day 17): 22 (17)* % | BWC ([1]; 100 mg/kg, D7, 14): −4% | Toxic deaths (d) ([1]; 100 mg/kg, D7, 14, death on day 20): 1 (20) | Optimum T/C (on day) ([1]; 100 mg/kg, D7, 14, on day 24): 4 (24)* % | antitumour activity after oral administration ([1]; oral, all tested schedules): High dose dependent activity | significance of antitumour activity ([1]; oral, all the tested schedules): Significant antitumour activity | antitumor effect [2]: Excellent antitumor effect | Optimum T/C [2, 9]: 19* % | Toxic deaths (d) [2, 9]: 0 | BWC D8-15 (body weight change) ([2]; IP, 40 mg/kg, D8, 11, 14, 17, 20, D8-15): −1 | BWC D13 ([3]; 40 mg/kg): −7% | Toxic deaths (d) ([3]; 40 mg/kg, deaths on day 15): 2/8 (15) | Optimum T/C (on day) ([3]; 40 mg/kg, on day 27): 5 (27)* % | Optimum T/C (on day) ([3]; 60 mg/kg): Toxic | BWC D13 ([3]; 60 mg/kg): −9% | Toxic deaths (d) ([3]; 60 mg/kg, deaths on days 12-24): 6/8 (12-24) | Optimum T/C (on day) ([3]; 80 mg/kg): Toxic | BWC D13 ([3]; 80 mg/kg): −6% | Toxic deaths (d) ([3]; 80 mg/kg, deaths on days 16-22): 6/8 (16-22) | antitumour activity after oral administration ([3]; oral, 40 mg/kg): highly active | tolerability after oral administration ([3]; oral, 40 mg/kg): tolerable | BWC (body weight change) ([4]; 40 mg/kg, D8, 11, 14, 17, 20): −4% | Optimum T/C (volume of treated tumour versus volume of control tumour) ([4]; 40 mg/kg, D8, 11, 14, 17, 20): 17* % | Toxic deaths (d) ([4]; 40 mg/kg): 0 | antitumour activity in terms of reductions in tumour growth [4]: high antitumour activity | maximum tolerated dose [5]: ~40 mg/kg per injection

Nc1ccn([C@@H]2O[C@H](CO)[C@@H](O)C2(F)F)c(=O)n1 [Gemcitabine, 2′,2′-difluorodeoxycytidine, reference compound]
BWC D8-15 (body weight change) [6]: −3 | BWC D13 ([7]; 120 mg/kg): −16% | BWC D13 ([7]; 180 mg/kg): −22% | BWC D13 ([7]; 240 mg/kg): −21% | BWC (body weight change) [8]: −5% | antitumor effect [2]: Excellent antitumor effect | Optimum T/C [2, 10]: 15* % | Toxic deaths (d) [2, 10]: 0 | Optimum T/C (volume of treated tumour versus volume of control tumour) ([4]; 120 mg/kg, D8, 11, 14, 17, 20): 17* % | Toxic deaths (d) ([4]; 120 mg/kg, death on day 18): 1 (18) | antitumour activity in terms of reductions in tumour growth [4]: high antitumour activity | maximum tolerated dose [5]: approximately 120 mg/kg per injection
